Among the data in US9200051B2, “Peptide compound” (TAKEDA PHARMACEUTICAL COMPANY LIMITED, priority 2013, dated 2015) are EC50 values, retold here.

Common to all, as to assay type: cell-based
The target in one experiment is T1, human GIPR (Homo sapiens, UniProt P48546).
T1 construct: expressed in transfected cells; host or cells: CHO-K1 (CRE-LUC/CHO-K1), plasmid hGIPR/pMSRα-neo
T1 sequence (P48546 22-466): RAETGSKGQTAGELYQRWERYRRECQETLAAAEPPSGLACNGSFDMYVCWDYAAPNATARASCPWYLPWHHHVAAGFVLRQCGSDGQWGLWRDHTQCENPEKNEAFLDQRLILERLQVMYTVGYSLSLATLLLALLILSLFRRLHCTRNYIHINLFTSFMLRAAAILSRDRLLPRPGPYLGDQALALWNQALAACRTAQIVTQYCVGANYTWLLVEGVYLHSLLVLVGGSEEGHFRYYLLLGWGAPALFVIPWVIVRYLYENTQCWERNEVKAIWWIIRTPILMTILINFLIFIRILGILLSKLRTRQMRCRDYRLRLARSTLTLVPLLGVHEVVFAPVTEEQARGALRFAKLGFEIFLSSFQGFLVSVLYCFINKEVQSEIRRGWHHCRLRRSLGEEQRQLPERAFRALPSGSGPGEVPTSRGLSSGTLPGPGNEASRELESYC
Briefly: Agonist activity against human GIPR, CRE-luciferase reporter assay (rise in intracellular cAMP) in hGIPR/CRE-LUC/CHO-K1 cells. The text has this: (§1) Evaluation of agonist activity against human GIPR, human GLP-1R and human glucagon R using rise in intracellular cAMP concentration as index
The human GIPR gene having a sequence identical to the sequence of GenBank Accession No. U39231 was cloned into pMSRα-neo vector to prepare hGIPR/pMSRα-neo.
(§2) The luciferase reporter gene having an upstream cAMP response sequence was introduced to CHO-K1 cells to construct CRE-LUC/CHO-K1 cells.
The plasmid hGIPR/pMSRα-neo obtained in (1) was introduced to the CRE-LUC/CHO-K1 cells obtained in (2) to obtain transformants. Next, a cell line induced to express luciferase, i.e., hGIPR/CRE-LUC/CHO-K1 cells, were selected from the obtained transformants by the addition of GIP.
(§3) The hGIPR/CRE-LUC/CHO-K1 cells were inoculated at a cell density of 25 μL/well (5×10^4 cells/well) to a 384-well white plate (Corning), and cultured overnight in Ham F12 medium containing 10% fetal bovine serum, 100 U/mL penicillin and 100 μg/mL streptomycin in a CO2 incubator of 37° C. A medium containing a test compound was added at a concentration of 5 μL/well to the cells, and the resultant cells were incubated for 4 hours in a CO2 incubator of 37° C. to give the final concentration of 1 μM. PicaGene LT7.5 (Toyo Ink Co., Ltd.) was added thereto at a concentration of 30 μL/well, and the mixture was shaken with light shielded. After 30 minutes, the luciferase activity was measured using a plate reader Envision (PerkinElmer). The luciferase activity in the presence of 10 nM GIP was defined as 100%, and the luciferase activity from the addition of DMSO instead of the test compound was defined as 0%. The GIPR agonist activity was calculated with a rise in intracellular cAMP concentration as an index.

Another experiment concerns the target T2, human glucagon R (Homo sapiens, UniProt P47871).
T2 construct: expressed in transfected cells; host or cells: CHO-K1 (CRE-LUC/CHO-K1), plasmid hGlucagonR/pMSRα-neo
As to the kind of experiment: Agonist activity against human glucagon R, CRE-luciferase reporter assay in hGlucagonR/CRE-LUC/CHO-K1 cells.
Text: as §1, §2
The human glucagon R gene having a sequence identical to the sequence of GenBank Accession No. NM_000160 was cloned into pMSRα-neo vector to prepare hGlucagonR/pMSRα-neo.
The plasmid hGlucagonR/pMSRα-neo obtained in (7) was introduced to the CRE-LUC/CHO-K1 cells obtained in (2) to obtain transformants. Next, a cell line induced to express luciferase, i.e., hGlucagonR/CRE-LUC/CHO-K1 cells, were selected from the obtained transformants by the addition of glucagon.
as §3
The glucagon R agonist activity was assayed in the same way as above using the hGlucagonR/CRE-LUC/CHO-K1 cells. The luciferase activity in the presence of 10 nM glucagon was defined as 100%, and the luciferase activity from the addition of DMSO instead of the test compound was defined as 0%. The glucagon agonist activity was calculated with a rise in intracellular cAMP concentration as an index.

In the next experiment the target is T3, human GLP-1R (Homo sapiens, UniProt P43220).
T3 construct: expressed in transfected cells; host or cells: CHO-K1, plasmids hGLP-1/pIRESneo3 and Cre-luc(Zeo)
Briefly: Agonist activity against human GLP-1R, CRE-luciferase reporter assay in hGLP-1R/CRE-luc/CHO-K1 cells.
Text: as §1
Four copies of the cAMP response sequence and the Zeocin resistance gene were introduced to pGL3(R2.2)-Basic Vector (Promega) to construct Cre-luc(Zeo) reporter plasmid.
The human GLP-1R gene having a sequence identical to the sequence of GenBank Accession No. NM_002062 was cloned into pIRESneo3 vector to prepare hGLP-1/pIRESneo3.
The Cre-luc(Zeo) obtained in (3) and the plasmid hGLP-1/pIRESneo3 obtained in (5) were introduced to CHO-K1 cells to obtain transformants. Next, a cell line induced to express luciferase, i.e., hGLP-1R/CRE-luc/CHO-K1 cells, were selected from the obtained transformants by the addition of GLP-1.
as §3
The GLP-1R agonist activity was assayed in the same way as above using the hGLP-1R/CRE-luc/CHO-K1 cells. The luciferase activity in the presence of 10 nM GLP-1 was defined as 100%, and the luciferase activity from the addition of DMSO instead of the test compound was defined as 0%. The GLP-1R agonist activity was calculated with a rise in intracellular cAMP concentration as an index.

Like-named read-outs stand apart in the source and are kept apart here. Square brackets hold non-standard residues; d marks the D form. Peptide text beside a SMILES is read from it. * marks the point of attachment. NMeY = CN[C@@H](Cc1ccc(O)cc1)C(=O)O; αMeF = C[C@](N)(Cc1ccccc1)C(=O)O; Isonicotinoyl = O=C(c1ccncc1)*; Aib = CC(C)(N)C(=O)O

T3 sequence (P43220 24-463): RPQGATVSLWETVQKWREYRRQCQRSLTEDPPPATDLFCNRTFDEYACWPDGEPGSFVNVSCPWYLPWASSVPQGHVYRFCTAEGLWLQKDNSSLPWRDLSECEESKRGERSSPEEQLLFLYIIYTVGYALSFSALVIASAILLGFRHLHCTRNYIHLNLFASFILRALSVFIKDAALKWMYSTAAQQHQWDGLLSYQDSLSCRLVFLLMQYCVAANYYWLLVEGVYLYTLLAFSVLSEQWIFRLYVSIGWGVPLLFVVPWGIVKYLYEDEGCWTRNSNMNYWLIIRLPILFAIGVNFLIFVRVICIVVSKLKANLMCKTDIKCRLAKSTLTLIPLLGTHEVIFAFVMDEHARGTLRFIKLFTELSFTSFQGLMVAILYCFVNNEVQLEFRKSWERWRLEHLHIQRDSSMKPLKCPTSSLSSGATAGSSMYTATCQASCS
T2 sequence (P47871 26-477): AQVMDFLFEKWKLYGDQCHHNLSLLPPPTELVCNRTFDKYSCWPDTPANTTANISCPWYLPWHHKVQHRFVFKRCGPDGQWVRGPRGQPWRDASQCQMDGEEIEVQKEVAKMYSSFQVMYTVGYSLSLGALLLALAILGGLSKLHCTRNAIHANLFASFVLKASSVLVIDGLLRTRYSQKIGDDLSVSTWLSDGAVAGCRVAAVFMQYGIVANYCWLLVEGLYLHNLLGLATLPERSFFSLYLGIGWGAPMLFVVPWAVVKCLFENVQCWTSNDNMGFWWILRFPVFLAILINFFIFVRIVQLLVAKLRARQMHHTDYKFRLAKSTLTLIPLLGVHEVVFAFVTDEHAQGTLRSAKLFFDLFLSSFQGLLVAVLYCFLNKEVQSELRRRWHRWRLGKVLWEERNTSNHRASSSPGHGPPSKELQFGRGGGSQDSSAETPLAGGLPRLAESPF

`CC[C@H](C)[C@H](NC(=O)C(C)(C)NC(=O)[C@H](Cc1ccc(O)cc1)NC(=O)[C@H](CC(=O)O)NC(=O)[C@H](CO)NC(=O)[C@@H](NC(=O)[C@](C)(Cc1ccccc1)NC(=O)[C@@H](NC(=O)CNC(=O)[C@H](CCC(=O)O)NC(=O)C(C)(C)NC(=O)[C@H](Cc1ccc(O)cc1)NC(=O)c1ccncc1)[C@@H](C)O)[C@@H](C)O)C(=O)NC(C)(C)C(=O)N[C@@H](CC(C)C)C(=O)N[C@@H](CC(=O)O)C(=O)N[C@@H](CCCCN)C(=O)N[C@@H](CCC(N)=O)C(=O)N[C@@H](C)C(=O)N[C@@H](CCC(N)=O)C(=O)N[C@@H](C)C(=O)N[C@@H](CCC(=O)O)C(=O)N[C@@H](Cc1ccccc1)C(=O)N[C@H](C(=O)N[C@@H](CCCCN)C(=O)N[C@@H](Cc1c[nH]c2ccccc12)C(=O)N[C@@H](CC(C)C)C(=O)N[C@@H](CC(C)C)C(=O)N[C@@H](CCCCN)C(=O)NCC(=O)NCC(=O)N1CCC[C@H]1C(=O)N[C@@H](CO)C(=O)N[C@@H](CO)C(=O)NCC(=O)N[C@@H](C)C(=O)N1CCC[C@H]1C(=O)N1CCC[C@H]1C(=O)N1CCC[C@H]1C(=O)N[C@@H](CO)C(=O)N[C@@H](CCCCN)C(N)=O)C(C)C` [Example 20] (Isonicotinoyl-Y[Aib]EGT[αMeF]TSDY[Aib]I[Aib]LDKQAQAEFVKWLLKGGPSSGAPPPSK-NH2): the EC50 at human GIPR (hGIPR/CRE-LUC/CHO-K1 cells, 4 hours incubation, 10 nM GIP = 100%, read-out: Agonist activity (EC50) hGIPR) is 0.026 nM; at human glucagon R (hGlucagonR/CRE-LUC/CHO-K1 cells, 4 hours incubation, 10 nM glucagon = 100%, read-out: Agonist activity (EC50) hGCGR), > 1000 nM; at human GLP-1R (hGLP-1R/CRE-luc/CHO-K1 cells, 4 hours incubation, 10 nM GLP-1 = 100%, read-out: Agonist activity (EC50) hGLP-1R), 0.13 nM.
For the molecule `CC[C@H](C)[C@H](NC(=O)C(C)(C)NC(=O)[C@H](Cc1ccc(O)cc1)NC(=O)[C@H](CC(=O)O)NC(=O)[C@H](CO)NC(=O)[C@@H](NC(=O)[C@](C)(Cc1ccccc1)NC(=O)[C@@H](NC(=O)CNC(=O)[C@H](CCC(=O)O)NC(=O)C(C)(C)NC(=O)[C@@H](N)Cc1ccc(O)cc1)[C@@H](C)O)[C@@H](C)O)C(=O)NC(C)(C)C(=O)N[C@@H](CC(C)C)C(=O)N[C@@H](CC(=O)O)C(=O)N[C@@H](CCCCN)C(=O)N[C@@H](CCC(N)=O)C(=O)N[C@@H](C)C(=O)N[C@@H](CCC(N)=O)C(=O)N[C@@H](CO)C(=O)N[C@@H](CCC(=O)O)C(=O)N[C@@H](Cc1ccccc1)C(=O)N[C@H](C(=O)N[C@@H](CCCCN)C(=O)N[C@@H](Cc1c[nH]c2ccccc12)C(=O)N[C@@H](CC(C)C)C(=O)N[C@@H](CC(C)C)C(=O)N[C@@H](CCCCN)C(=O)NCC(=O)NCC(=O)N1CCC[C@H]1C(=O)N[C@@H](CO)C(=O)N[C@@H](CO)C(=O)NCC(=O)N[C@@H](C)C(=O)N1CCC[C@H]1C(=O)N1CCC[C@H]1C(=O)N1CCC[C@H]1C(=O)N[C@@H](CO)C(N)=O)C(C)C` [Example 8] (H-Y[Aib]EGT[αMeF]TSDY[Aib]I[Aib]LDKQAQSEFVKWLLKGGPSSGAPPPS-NH2), the results for the EC50 on human GIPR, at human glucagon R and on human GLP-1R were 0.008 nM, > 1000 nM and 0.014 nM, respectively.
On to `CC[C@H](C)[C@H](NC(=O)[C@H](C)NC(=O)[C@H](Cc1ccc(O)cc1)NC(=O)[C@H](CC(=O)O)NC(=O)[C@H](CO)NC(=O)[C@@H](NC(=O)[C@](C)(Cc1ccccc1)NC(=O)[C@@H](NC(=O)CNC(=O)[C@H](CCC(=O)O)NC(=O)C(C)(C)NC(=O)[C@@H](N)Cc1ccc(O)cc1)[C@@H](C)O)[C@@H](C)O)C(=O)NC(C)(C)C(=O)N[C@@H](CC(C)C)C(=O)N[C@@H](CC(=O)O)C(=O)N[C@@H](CCCCN)C(=O)N[C@@H](CCC(N)=O)C(=O)N[C@@H](C)C(=O)N[C@@H](CCC(N)=O)C(=O)N[C@@H](C)C(=O)N[C@@H](CCC(=O)O)C(=O)N[C@@H](Cc1ccccc1)C(=O)N[C@H](C(=O)N[C@@H](CCCCN)C(=O)N[C@@H](Cc1c[nH]c2ccccc12)C(=O)N[C@@H](CC(C)C)C(=O)N[C@@H](CC(C)C)C(=O)N[C@@H](CCCCN)C(=O)NCC(=O)NCC(=O)N1CCC[C@H]1C(=O)N[C@@H](CO)C(=O)N[C@@H](CO)C(=O)NCC(=O)N[C@@H](C)C(=O)N1CCC[C@H]1C(=O)N1CCC[C@H]1C(=O)N1CCC[C@H]1C(=O)N[C@@H](CO)C(N)=O)C(C)C` [Example 5] (H-Y[Aib]EGT[αMeF]TSDYAI[Aib]LDKQAQAEFVKWLLKGGPSSGAPPPS-NH2), for which the 50% effective concentration (EC50) was 0.0055 nM at human GIPR, > 1000 nM at human glucagon R and 0.0072 nM at human GLP-1R.
For the molecule `CC[C@H](C)[C@H](NC(=O)C(C)(C)NC(=O)[C@H](Cc1ccc(O)cc1)NC(=O)[C@H](CC(=O)O)NC(=O)[C@H](CO)NC(=O)[C@@H](NC(=O)[C@](C)(Cc1ccccc1)NC(=O)[C@@H](NC(=O)CNC(=O)[C@H](CCC(=O)O)NC(=O)C(C)(C)NC(=O)[C@H](Cc1ccc(O)cc1)NC)[C@@H](C)O)[C@@H](C)O)C(=O)NC(C)(C)C(=O)N[C@@H](CC(C)C)C(=O)N[C@@H](CC(=O)O)C(=O)N[C@@H](CCCCN)C(=O)N[C@@H](CCC(N)=O)C(=O)N[C@@H](C)C(=O)N[C@@H](CCC(N)=O)C(=O)N[C@@H](C)C(=O)N[C@@H](CCC(=O)O)C(=O)N[C@@H](Cc1ccccc1)C(=O)N[C@H](C(=O)N[C@@H](CCCCN)C(=O)N[C@@H](Cc1c[nH]c2ccccc12)C(=O)N[C@@H](CC(C)C)C(=O)N[C@@H](CC(C)C)C(=O)N[C@@H](CCCCN)C(=O)NCC(=O)NCC(=O)N1CCC[C@H]1C(=O)N[C@@H](CO)C(=O)N[C@@H](CO)C(=O)NCC(=O)N[C@@H](C)C(=O)N1CCC[C@H]1C(=O)N1CCC[C@H]1C(=O)N1CCC[C@H]1C(=O)N[C@@H](CO)C(=O)N[C@@H](CCCCN)C(N)=O)C(C)C` [Example 23] (H-[NMeY][Aib]EGT[αMeF]TSDY[Aib]I[Aib]LDKQAQAEFVKWLLKGGPSSGAPPPSK-NH2), the EC50 on human GIPR and on human GLP-1R was 0.016 nM in each case.
